Measurements from US6593319B1, “Fusidic acid derivatives” (Leo Pharmaceutical Products, Ltd. A/S, priority 2001, dated 2003).

Key:
C. diphteria/62001 = assay: MIC, microtitter plates, liquid medium containing broth; assay type: cell-based
Procedure: (§1) In vitro investigations have evidenced high potency of compounds of the invention against several bacteria including staphylococci, streptococci, corynebacteriae and mycobacteriae. […] The biological tests are conducted on microtitter plates using liquid medium containing broth.

[1] = system: E. faecalis/V583 P. Cour.; assay: as above; assay type: cell-based; details: VanR
Procedure: as §1

M. tuberculosis/R 498 = assay: as above; assay type: cell-based
Procedure: as §1

N. gonorrhoea/C1 = assay: as above; assay type: cell-based
Procedure: as §1

N. meningitidis/K1 = assay: as above; assay type: cell-based
Procedure: as §1

P. acnes/1060 = assay: as above; assay type: cell-based
Procedure: as §1

S. aureus/1 Aus-pe = assay: as above; assay type: cell-based; details: FusS, MRSA
Procedure: as §1

S. aureus/22 DK = assay: as above; assay type: cell-based; details: FusS, MSSA
Procedure: as §1

S. aureus/54 USA-br = assay: as above; assay type: cell-based; details: FusR, MSSA
Procedure: as §1

S. aureus/ATCC 29213 = assay: as above; assay type: cell-based; details: FusS, MSSA
Procedure: as §1

Staphylococcus/291-2 = assay: as above; assay type: cell-based; details: Staphylococcus/291-2, coagulase negative, FusS
Procedure: as §1

Staphylococcus/379-2 = assay: as above; assay type: cell-based; details: Staphylococcus/379-2, coagulase negative, FusR
Procedure: as §1

[2] = system: Streptococcus - gr.A/67011; assay: as above; assay type: cell-based
Procedure: as §1

Streptococcus - gr.B/61 = assay: as above; assay type: cell-based
Procedure: as §1

Streptococcus - gr.C/68 = assay: as above; assay type: cell-based
Procedure: as §1

Streptococcus - gr.G/59 = assay: as above; assay type: cell-based
Procedure: as §1

S. aureus ATCC2977 = assay: MIC, agar diffusion method (European Pharmacopoeia 3rd Ed.); assay type: cell-based
Procedure: (§2) The antibacterial activity of some of these compounds relative to fusidic acid appears from Table 2 showing MIC values for compounds of the invention. The method used is recommended by the European Pharmacopoeia 3rd Ed. (1997) for testing the potency of antibiotics. It is an agar diffusion method where the same volume of the tested solution is added to cavities in agar. The inhibition zones are a function of the concentration of the fusidic acid analogue used. All assays are run with fusidic acid (1) as the reference substance. The results in Table 2 differ from those of Table 1 due to the different experimental methods used.

S. aureus ATCC6538P = assay: as above; assay type: cell-based
Procedure: as §2

S. aureus Leo id. CJ232 = assay: as above; assay type: cell-based; details: S. aureus Leo id. CJ232, MRSA
Procedure: as §2

S. aureus Leoid CJ234(R) = assay: as above; assay type: cell-based; details: MRSA and Rifampicin resistant
Procedure: as §2

[3] = system: Strep. epidermis A. ATCC12228; assay: as above; assay type: cell-based
Procedure: as §2

[4] = system: Strep. faecalis ATCC10541; assay: as above; assay type: cell-based
Procedure: as §2

[5] = system: Strep. faecium Leo id. E119(P); assay: as above; assay type: cell-based; details: Penicillin resistant
Procedure: as §2

[6] = system: Strep. sp. Gr.B Leo id. EF6; assay: as above; assay type: cell-based
Procedure: as §2

[7] = Stability in ethanol solution (retained activity); assay type: physicochemical; details: solution in ethanol stored at 0° C. for 1 month

## CC(=O)OC1CC2(C)C(CC(O)C3C4(C)CCC(O)C(C)C4CCC32C)C1C(CCC=C(C)C)C(=O)O [Compound 101, 17(S),20(S)-Dihydrofusidic Acid]
C. diphteria/62001
  MIC values (concentrations in μg/ml required for 90% inhibition): 0.063 µg/mL
[1]
  MIC values (concentrations in μg/ml required for 90% inhibition): 16 µg/mL
M. tuberculosis/R 498
  MIC values (concentrations in μg/ml required for 90% inhibition): 16 µg/mL
N. gonorrhoea/C1
  MIC values (concentrations in μg/ml required for 90% inhibition): 4 µg/mL
N. meningitidis/K1
  MIC values (concentrations in μg/ml required for 90% inhibition): 1 µg/mL
P. acnes/1060
  MIC values (concentrations in μg/ml required for 90% inhibition): 0.5 µg/mL
S. aureus/1 Aus-pe
  MIC values (concentrations in μg/ml required for 90% inhibition): 1 µg/mL
S. aureus/22 DK
  MIC values (concentrations in μg/ml required for 90% inhibition): 1 µg/mL
S. aureus/54 USA-br
  MIC values (concentrations in μg/ml required for 90% inhibition): 8 µg/mL
S. aureus/ATCC 29213
  MIC values (concentrations in μg/ml required for 90% inhibition): 1 µg/mL
Staphylococcus/291-2
  MIC values (concentrations in μg/ml required for 90% inhibition): 1 µg/mL
Staphylococcus/379-2
  MIC values (concentrations in μg/ml required for 90% inhibition): 64 µg/mL
[2]
  MIC values (concentrations in μg/ml required for 90% inhibition): 64 µg/mL
Streptococcus - gr.B/61
  MIC values (concentrations in μg/ml required for 90% inhibition): >64 µg/mL
Streptococcus - gr.C/68
  MIC values (concentrations in μg/ml required for 90% inhibition): 4 µg/mL
Streptococcus - gr.G/59
  MIC values (concentrations in μg/ml required for 90% inhibition): 8 µg/mL
S. aureus ATCC2977
  MIC values (concentrations in μg/ml required for 90% inhibition): 0.001 µg/mL
S. aureus ATCC6538P
  MIC values (concentrations in μg/ml required for 90% inhibition): 0.002 µg/mL
S. aureus Leo id. CJ232
  MIC values (concentrations in μg/ml required for 90% inhibition): 0.003 µg/mL
S. aureus Leoid CJ234(R)
  MIC values (concentrations in μg/ml required for 90% inhibition): 0.001 µg/mL
[3]
  MIC values (concentrations in μg/ml required for 90% inhibition): 0.001 µg/mL
[4]
  MIC values (concentrations in μg/ml required for 90% inhibition): 3.7 µg/mL
[5]
  MIC values (concentrations in μg/ml required for 90% inhibition): 1.2 µg/mL
[6]
  MIC values (concentrations in μg/ml required for 90% inhibition): 3.5 µg/mL
[7]
  retained initial activity: > 80%

## CC(=O)O[C@H]1C[C@@]2(C)[C@@H](C[C@@H](O)[C@H]3[C@@]4(C)CC[C@@H](O)[C@@H](C)[C@@H]4CC[C@@]32C)[C@H]1[C@H](CCCC(C)C)C(=O)O [Compound 102, 17(S),20(S),24,25-Tetrahydrofusidic Acid]
S. aureus ATCC2977
  MIC values (concentrations in μg/ml required for 90% inhibition): 0.02 µg/mL
S. aureus ATCC6538P
  MIC values (concentrations in μg/ml required for 90% inhibition): 0.016 µg/mL
S. aureus Leo id. CJ232
  MIC values (concentrations in μg/ml required for 90% inhibition): 0.12 µg/mL
S. aureus Leoid CJ234(R)
  MIC values (concentrations in μg/ml required for 90% inhibition): 0.009 µg/mL
[3]
  MIC values (concentrations in μg/ml required for 90% inhibition): 0.015 µg/mL
[4]
  MIC values (concentrations in μg/ml required for 90% inhibition): MIC>64 μg/ml
[5]
  MIC values (concentrations in μg/ml required for 90% inhibition): 3.9 µg/mL
[6]
  MIC values (concentrations in μg/ml required for 90% inhibition): 3.4 µg/mL

## CCC(=O)OC1CC2(C)C(CC(O)C3C4(C)CCC(O)C(C)C4CCC32C)C1C(CCC=C(C)C)C(=O)O [Compound 105, 16-Deacetoxy-16β-propionyloxy-17(S),20(S)-dihydrofusidic Acid]
S. aureus ATCC2977
  MIC values (concentrations in μg/ml required for 90% inhibition): 0.19 µg/mL
S. aureus ATCC6538P
  MIC values (concentrations in μg/ml required for 90% inhibition): 0.22 µg/mL
S. aureus Leo id. CJ232
  MIC values (concentrations in μg/ml required for 90% inhibition): 0.24 µg/mL
S. aureus Leoid CJ234(R)
  MIC values (concentrations in μg/ml required for 90% inhibition): 0.063 µg/mL
[3]
  MIC values (concentrations in μg/ml required for 90% inhibition): 0.08 µg/mL
[4]
  MIC values (concentrations in μg/ml required for 90% inhibition): >64 µg/mL
[5]
  MIC values (concentrations in μg/ml required for 90% inhibition): 3.9 µg/mL
[6]
  MIC values (concentrations in μg/ml required for 90% inhibition): >64 µg/mL

## CC(C)=CCCC(C(=O)O)C1C(OC(=O)C2CCCCC2)CC2(C)C1CC(O)C1C3(C)CCC(O)C(C)C3CCC12C [Compound 113, 16-Deacetoxy-16β-cyclohexylcarbonyloxy-17(S),20(S)-dihydrofusidic acid]
S. aureus ATCC2977
  MIC values (concentrations in μg/ml required for 90% inhibition): 16 µg/mL
S. aureus ATCC6538P
  MIC values (concentrations in μg/ml required for 90% inhibition): 16 µg/mL
S. aureus Leo id. CJ232
  MIC values (concentrations in μg/ml required for 90% inhibition): 16 µg/mL
S. aureus Leoid CJ234(R)
  MIC values (concentrations in μg/ml required for 90% inhibition): 16 µg/mL
[3]
  MIC values (concentrations in μg/ml required for 90% inhibition): >64 µg/mL
[4]
  MIC values (concentrations in μg/ml required for 90% inhibition): >64 µg/mL
[5]
  MIC values (concentrations in μg/ml required for 90% inhibition): >64 µg/mL
[6]
  MIC values (concentrations in μg/ml required for 90% inhibition): 4 µg/mL
